Measurements taken from patent US7056679B2, “Target specific screening and its use for identifying target binders” (Antyra, Inc., priority 2001, dated 2006).

How the values were obtained:
[1] = tested on: lactate dehydrogenase (LDH); assay: ELISA analysis of phage on LDH (irrelevant, non-specific target); assay type: binding; details: peptide binding to LDH polypeptide (non-specific binding); phage ELISA units read at 405 nm
Method in brief: (§1)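 Phage from picked clones (M13KO7 helper) bound 2 hr at room temperature to wells coated overnight at 4 °C with 500 ng/well anti-ETAG antibody or LDH, milk-blocked. Detection with HRP-anti-M13 (1:3000) and ABTS at 405 nm; positive when A405 ≥2-fold over background.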

DGI-2 = target: T1, DGI-2 (Homo sapiens, UniProt Q15004); assay: ELISA analysis of phage on DGI-2 polypeptide (specific binding); details: for DGI-2 (OD): binding to DGI-2 polypeptide (specific binding), phage ELISA units read at 405 nm; for DGI-2/LDH (OD): ratio of specific binding to non-specific binding
T1 construct: encompassed the entire DGI-2 open reading frame (ORF); His-tag of vector pIVEX2.3-MCS (inferred from the vector and from the reverse primer lacking a stop codon); made in house; host or cells: cell-free in vitro translation (Rapid Translation System RTS, Roche; E. coli lysate)
T1 sequence (Q15004 1-111): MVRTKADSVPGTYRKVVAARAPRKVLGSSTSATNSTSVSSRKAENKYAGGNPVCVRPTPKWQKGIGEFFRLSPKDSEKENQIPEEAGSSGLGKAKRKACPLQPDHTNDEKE
Method in brief: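 Recombinant DGI-2 from in vitro translation, LDH (non-specific) and controls were coated at 500 ng/well and blocked with 2% milk-PBS. Phage from individual clones bound for 2 hr at room temperature, then anti-M13-HRP with ABTS was read at 405 nm; a clone counted as positive at ≥2-fold over background.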

E-tag antibody = assay: ELISA analysis of phage on antibody raised against ETAG (positive control); details: peptide binding to E-tag antibody; phage ELISA units read at 405 nm
Method in brief: as §1

LDH (OD) [1] | DGI-2 (OD) (DGI-2) | DGI-2/LDH (OD) (DGI-2) | Substance | ETAG (OD) (E-tag antibody)
1.1 OD | 1.5 OD | 1.4 | FSSTGILLRSGRATAVGHVT (DGI-2-20F-3-A6; listed as Escherichia coli) | 13.2 OD
1.0 OD | 2.4 OD | 2.5 | GLRACDTYLGFCVGARRIDD (DGI-2-20F-3-B102; listed as Escherichia coli) | 18.0 OD
0.7 OD | 1.7 OD | 2.4 | FGRDGDGIQRRQGGFSWVGDR (DGI-2-20F-PP-E2; listed as Escherichia coli) | 11.6 OD
1.0 OD | 2.4 OD | 2.5 | SLLCVVCRPVSGGRALGGVP (DGI-2-20F-PP-B42; listed as Escherichia coli) | 21.5 OD
1.1 OD | 6.2 OD | 5.7 | WAASCFWGHVALGCGRNGQG (DGI-2-20R-3-A11; listed as Escherichia coli) | 14.7 OD
1.2 OD | 1.6 OD | 1.3 | LTWGPQFGSLQVYSRHRGLP (DGI-2-20R-4-E4; listed as Escherichia coli) | 18.1 OD
1.1 OD | 2.3 OD | 2.2 | VVGYAQGDGLEGGLGSSRDGS (DGI-2-20F-PP-D8; listed as Escherichia coli) | 2.6 OD
1.0 OD | 6.3 OD | 6.2 | WWERFVWGRPVDDGVVVMAT (DGI-2-20R-3-B1; listed as Escherichia coli) | 14.5 OD
0.9 OD | 2.0 OD | 2.2 | SAFGCPLPRALGGGGARFYA (DGI-2-20F-PP-E11; listed as Escherichia coli) | 15.2 OD
1.1 OD | 2.7 OD | 2.6 | RVSYEMLGRRRRSMHGSSMR (DGI-2-20F-PP-A4; listed as Escherichia coli) | 6.6 OD
0.8 OD | 1.8 OD | 2.1 | FRVALLSVSAGPCEGSGNT (DGI-2-20F-PP-H7; listed as Escherichia coli) | 3.7 OD
0.9 OD | 2.4 OD | 2.6 | TPVAISIPAGVCSTSVCGRD (DGI-2-20F-PP-C11; listed as Escherichia coli) | 3.2 OD
0.8 OD | 0.9 OD | 1.1 | RRTQPAYRSGADDRTSGFYCYVTSALSAGAWMPFLPRRLA (DGI-2-40F-3-A12; listed as Escherichia coli) | 4.6 OD
0.9 OD | 1.6 OD | 1.9 | SRGMAEAQFSAWPVLAVFPL (DGI-2-20F-PP-H8; listed as Escherichia coli) | 32.4 OD
1.2 OD | 2.7 OD | 2.3 | TFTRDVAGPAVSFVRLHSWN (DGI-2-20F-PP-A9; listed as Escherichia coli) | 40.8 OD
1.2 OD | 2.0 OD | 1.7 | MGADTCMGGKMPFDQMFGAV (DGI-2-20F-PP-E10; listed as Escherichia coli) | 44.6 OD
1.1 OD | 7.6 OD | 7.1 | RDTMCGSVSWGIPGCEYSGM (DGI-2-20R-4-G122; listed as Escherichia coli) | 13.9 OD
1.1 OD | 5.5 OD | 5.2 | TVKFQGVVQERSRIAGFRYCGDHAVSWGLAGCPALRDKLQ (DGI-2-40F-3-C424; listed as Escherichia coli) | 14.8 OD
0.8 OD | 1.9 OD | 2.4 | KVWGCGARRGWERLGHLNQV (DGI-2-20F-PP-B10; listed as Escherichia coli) | 27.1 OD

LDH (OD) [1] | DGI-2 (OD) (DGI-2) | DGI-2/LDH (OD) (DGI-2) | Substance | ETAG (OD) (E-tag antibody)
1.3 OD | 3.5 OD | 2.8 | VVHTRAWGSWAYGFVLRNRG (DGI-2-20F-PP-F10; listed as Escherichia coli) | 42.5 OD
1.0 OD | 1.3 OD | 1.3 | MAVLPAARDFGGVVQGGVSG (DGI-2-20F-3-C2; listed as Escherichia coli) | 11.5 OD
1.0 OD | 2.9 OD | 3.0 | RMYNCHYIERLYDWHAGRJLLQDPA (RMYNCHYIERLYDWHAGRILLQDPA; not fully specified; non-natural residue J; DGI-2-20C-4-E926; listed as Escherichia coli) | 17.4 OD
0.9 OD | 2.5 OD | 2.9 | PVYRVAMCRISVGCSAGAWF (DGI-2-20F-PP-C12; listed as Escherichia coli) | 36.4 OD
1.0 OD | 1.4 OD | 1.4 | YDQVWNSLLAAVLGGQELVN (DGI-2-20F-3-D112; listed as Escherichia coli) | 19.9 OD
1.2 OD | 2.8 OD | 2.4 | SLFERSARSRYHGSPDCNGS (DGI-2-20F-PP-A3; listed as Escherichia coli) | 12.9 OD
1.1 OD | 6.0 OD | 5.2 | GIMQVAWGWREMTRLWDLGMA (GIMQVAWGWREWRLWDLGMA; DGI-2-20R-3-C6; listed as Escherichia coli) | 20.3 OD
0.8 OD | 1.6 OD | 2.0 | VSGY#SLWWCGPGWGPRSGR (VSGYSLWWCGPGWGPRSGR; DGI-2-20F-PP-H11; listed as Escherichia coli) | 2.1 OD
1.2 OD | 3.0 OD | 2.6 | EVFVSVWVFRFRVMPVTPGGT (DGI-2-20F-PP-E6; listed as Escherichia coli) | 4.1 OD
0.9 OD | 0.9 OD | 1.0 | GEVDCVYALTHRFLSPQVQYHIHRPV (GEVDCVYALTHRFLSPQVQYHHRPV; DGI-2-20C-3-A12; listed as Escherichia coli) | 8.1 OD
1.1 OD | 3.1 OD | 2.8 | VCGQRVARMQLNKTIRKLDS (DGI-2-20F-PP-A6; listed as Escherichia coli) | 35.1 OD
1.8 OD | 2.3 OD | 1.3 | DDIVCLFQFCTMFCWLDMGW (DDIVCLFQFCIMFCWLDMGW; DGI-2-20F-PP-H3; listed as Escherichia coli) | 3.7 OD
1.0 OD | 2.8 OD | 2.7 | TSCQVMFLAGQHLLSRVPRL (DGI-2-20R-3-B6; listed as Escherichia coli) [DGL-2-20R-3-B6] | 11.7 OD
1.2 OD | 1.7 OD | 1.4 | RDHRYVGWGRATFRHDQSVW (DGI-2-20F-PP-H1; listed as Escherichia coli) | 1.4 OD
0.8 OD | 0.9 OD | 1.2 | QSNVWVLVGVIMQGVWYQRQHYCVYVMLLSDQVSVLLAVA (DGI-2-40F-3-B6; listed as Escherichia coli) | 1.8 OD
0.9 OD | 3.0 OD | 3.4 | ERVSKCVGRGSGRSVGQFGG (DGI-2-20F-PP-F1; listed as Escherichia coli) | 11.1 OD
1.0 OD | 2.3 OD | 2.5 | QGSAHVVRPPGVYDVPWKVGMFFHPQNWPNSWGRAYFRSG (DGI-2-40F-3-D12; listed as Escherichia coli) | 7.3 OD
1.1 OD | 4.7 OD | 4.5 | ISGQVWSSWRFPGWGGKLF (ISGQVWSSWRFPGWGGKF; DGI-2-20R-3-D10; listed as Escherichia coli) | 19.6 OD
1.0 OD | 5.6 OD | 5.9 | LPQSRWLSEAWASWVDGVVD (DGI-2-20F-4-F9; listed as Escherichia coli) | 19.6 OD
